Tests used:
human recombinant HDAC6 = biological target: T1, human recombinant HDAC6 (Homo sapiens, UniProt Q9UBN7); assay: HDAC6 enzyme activity inhibition assay (HDAC Fluorimetric Drug Discovery Kit); assay type: biochemical; settings: for HDAC6 selectivity (fold): HDAC1 vs HDAC6; for IC50: same protocol as the HDAC1 enzyme activity test
T1 construct: purchased Calbiochem 382180
T1 sequence (Q9UBN7 1-1215): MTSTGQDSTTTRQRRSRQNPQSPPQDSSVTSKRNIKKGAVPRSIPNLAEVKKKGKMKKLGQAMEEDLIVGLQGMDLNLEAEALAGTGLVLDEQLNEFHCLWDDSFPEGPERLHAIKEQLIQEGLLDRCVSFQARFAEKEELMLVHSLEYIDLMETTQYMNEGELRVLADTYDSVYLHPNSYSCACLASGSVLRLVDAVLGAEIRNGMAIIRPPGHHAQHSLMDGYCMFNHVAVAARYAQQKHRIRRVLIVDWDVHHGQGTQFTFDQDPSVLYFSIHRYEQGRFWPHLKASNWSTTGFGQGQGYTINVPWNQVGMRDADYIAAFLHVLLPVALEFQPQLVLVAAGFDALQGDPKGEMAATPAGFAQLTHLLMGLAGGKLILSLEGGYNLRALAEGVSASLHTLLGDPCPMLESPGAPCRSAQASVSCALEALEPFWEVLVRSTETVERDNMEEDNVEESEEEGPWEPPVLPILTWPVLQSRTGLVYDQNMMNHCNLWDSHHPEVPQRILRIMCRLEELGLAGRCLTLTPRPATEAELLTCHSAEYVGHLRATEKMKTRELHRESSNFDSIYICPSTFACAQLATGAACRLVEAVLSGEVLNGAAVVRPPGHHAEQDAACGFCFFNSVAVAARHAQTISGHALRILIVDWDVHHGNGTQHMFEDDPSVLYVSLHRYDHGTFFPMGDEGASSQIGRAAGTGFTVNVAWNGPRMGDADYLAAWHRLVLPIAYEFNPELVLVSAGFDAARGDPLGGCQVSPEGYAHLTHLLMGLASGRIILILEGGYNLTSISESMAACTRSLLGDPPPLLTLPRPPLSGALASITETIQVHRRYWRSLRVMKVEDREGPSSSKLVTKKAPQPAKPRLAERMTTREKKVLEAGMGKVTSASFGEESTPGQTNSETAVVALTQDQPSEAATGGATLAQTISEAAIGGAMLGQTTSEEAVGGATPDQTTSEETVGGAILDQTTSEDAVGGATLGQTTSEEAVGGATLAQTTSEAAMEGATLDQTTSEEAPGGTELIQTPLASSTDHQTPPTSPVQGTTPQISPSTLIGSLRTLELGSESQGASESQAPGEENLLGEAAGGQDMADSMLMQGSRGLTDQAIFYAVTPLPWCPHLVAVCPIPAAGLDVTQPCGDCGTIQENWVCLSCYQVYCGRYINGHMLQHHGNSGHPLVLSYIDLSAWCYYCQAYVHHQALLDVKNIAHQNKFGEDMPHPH
Outline: (§1)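 Both isoforms are run by an identical fluorimetric protocol: deacetylation of 10 μM Fluor de Lys-SIRT1 substrate by 0.3 μg recombinant enzyme over 60 min at 30° C, in the presence of 5-fold compound dilutions. Signal is developed for 30 min and read at Ex 360/Em 460 to derive IC50.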

human recombinant HDAC1 = biological target: T2, human recombinant HDAC1 (Homo sapiens, UniProt Q13547); assay: HDAC1 enzyme activity inhibition assay (HDAC Fluorimetric Drug Discovery Kit); assay type: biochemical; settings: 0.3 μg enzyme, 10 μM substrate, 30° C., 60 minutes
T2 construct: purchased Enzo Life Science BML-SE456
T2 sequence (Q13547 whole entry): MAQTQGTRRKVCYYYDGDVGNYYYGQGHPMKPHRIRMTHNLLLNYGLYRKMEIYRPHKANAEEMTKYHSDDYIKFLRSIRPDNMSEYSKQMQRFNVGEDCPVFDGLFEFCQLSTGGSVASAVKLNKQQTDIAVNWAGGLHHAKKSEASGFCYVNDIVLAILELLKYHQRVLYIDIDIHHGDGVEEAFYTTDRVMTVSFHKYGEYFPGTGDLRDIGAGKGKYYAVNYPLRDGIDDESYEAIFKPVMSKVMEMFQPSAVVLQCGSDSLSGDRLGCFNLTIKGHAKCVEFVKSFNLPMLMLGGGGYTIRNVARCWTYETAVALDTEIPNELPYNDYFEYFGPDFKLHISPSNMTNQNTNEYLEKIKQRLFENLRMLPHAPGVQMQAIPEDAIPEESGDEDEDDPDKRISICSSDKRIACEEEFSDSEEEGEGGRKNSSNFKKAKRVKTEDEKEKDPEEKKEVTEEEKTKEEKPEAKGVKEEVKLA
Outline: as §1

HDAC6 selectivity (fold) (human recombinant HDAC6)	IC50 (human recombinant HDAC6)	IC50 (human recombinant HDAC1)	Structure (SMILES)
2635 fold	8 nM	21100 nM	CCS(=O)(=O)N(Cc1ccc(-c2nnc(C(F)F)o2)cn1)c1ccc(F)c(F)c1 [Compound 11462, N-((5-(5-(difluoromethyl)-1,3,4-oxadiazol-2-yl)pyridin-2-yl)methyl)-N-(3,4-difluorophenyl)ethanesulfonamide]
654 fold	92.1 nM	60300 nM	Cc1cccc(N(Cc2ccc(-c3nnc(C(F)F)o3)cn2)S(=O)(=O)C2CCN(C3CC4CCC3C4)CC2)c1 (stereo not drawn) [Compound 11686, 1-(bicyclo[2.2.1]heptan-2-yl)-N-((5-(5-(difluoromethyl)-1,3,4-oxadiazol-2-yl)pyridin-2-yl)methyl)-N-(m-tolyl)piperidine-4-sulfonamide]
1266 fold	32.4 nM	41000 nM	O=S(=O)(CCCN1CCCC1)N(Cc1ccc(-c2nnc(C(F)F)o2)cc1)c1ccc(F)c(Cl)c1 [Compound 11722, N-(3-chloro-4-fluorophenyl)-N-(4-(5-(difluoromethyl)-1,3,4-oxadiazol-2-yl)benzyl)-3-(pyrrolidin-1-yl)propane-1-sulfonamide]
211 fold	37 nM	7810 nM	COc1cccc(N(Cc2ccc(-c3nnc(C(F)(F)F)o3)cc2F)S(C)(=O)=O)c1 [Compound 11179, N-(2-fluoro-4-(5-(trifluoromethyl)-1,3,4-oxadiazol-2-yl)benzyl)-N-(3-methoxyphenyl)methanesulfonamide]
1081 fold	38 nM	41100 nM	CS(=O)(=O)N(Cc1ccc(-c2nnc(C(F)(F)F)o2)cc1F)c1ccccc1 [Compound 11169, N-(2-fluoro-4-(5-(trifluoromethyl)-1,3,4-oxadiazol-2-yl)benzyl)-N-phenylmethanesulfonamide]
2727 fold	8 nM	21800 nM	O=S1(=O)CCC(S(=O)(=O)N(Cc2ccc(-c3nnc(C(F)F)o3)cn2)c2ccc(F)c(Cl)c2)CC1 [Compound 11497, N-(3-chloro-4-fluorophenyl)-N-((5-(5-(difluoromethyl)-1,3,4-oxadiazol-2-yl)pyridin-2-yl)methyl)tetrahydro-2H-thiopyran-4-sulfonamide 1,1-dioxide]
2666 fold	23 nM	61300 nM	O=S(=O)(CCN1CCN(CCCO)CC1)N(Cc1ccc(-c2nnc(C(F)F)o2)cc1)c1ccccc1 [Compound 11679, N-(4-(5-(difluoromethyl)-1,3,4-oxadiazol-2-yl)benzyl)-2-(4-(3-hydroxypropyl)piperazin-1-yl)-N-phenylethane-1-sulfonamide]
151 fold	129 nM	19500 nM	CS(=O)(=O)N(Cc1ccc(-c2nnc(C(F)(F)F)o2)cc1F)c1cccc(Cl)c1 [Compound 11190, N-(3-chlorophenyl)-N-(2-fluoro-4-(5-(trifluoromethyl)-1,3,4-oxadiazol-2-yl)benzyl)methanesulfonamide]
271 fold	61 nM	16500 nM	CS(=O)(=O)N(Cc1ccc(-c2nnc(C(F)(F)F)o2)cn1)c1ccc(F)c(Cl)c1 [Compound 11432, N-(3-chloro-4-fluorophenyl)-N-((5-(5-(trifluoromethyl)-1,3,4-oxadiazol-2-yl)pyridin-2-yl)methyl)methanesulfonamide]
3626 fold	22 nM	79800 nM	O=S(=O)(CCCN1CCCC1)N(Cc1ccc(-c2nnc(C(F)F)o2)cc1)c1ccccc1 [Compound 11647, N-(4-(5-(difluoromethyl)-1,3,4-oxadiazol-2-yl)benzyl)-N-phenyl-3-(pyrrolidin-1-yl)propane-1-sulfonamide]
1 fold	2290 nM	2540 nM	CS(=O)(=O)N(Cc1cnc(-c2nnc(C(F)(F)F)o2)cn1)c1ccccc1 [Compound 11573, N-phenyl-N-((5-(5-(trifluoromethyl)-1,3,4-oxadiazol-2-yl)pyrazin-2-yl)methyl)methanesulfonamide]
108 fold	65 nM	7000 nM	COc1ccc(N(Cc2ccc(-c3nnc(C(F)(F)F)o3)cc2F)S(C)(=O)=O)cc1 [Compound 11192, N-(2-fluoro-4-(5-(trifluoromethyl)-1,3,4-oxadiazol-2-yl)benzyl)-N-(4-methoxyphenyl)methanesulfonamide]
4977 fold	12 nM	59700 nM	CCS(=O)(=O)N(Cc1ccc(-c2nnc(C(F)F)o2)cn1)c1cc(Cl)cc(Cl)c1 [Compound 11506, N-(3,5-dichlorophenyl)-N-((5-(5-(difluoromethyl)-1,3,4-oxadiazol-2-yl)pyridin-2-yl)methyl)ethanesulfonamide]
597 fold	71.1 nM	42500 nM	C[C@H]1CCCN1CCCS(=O)(=O)N(Cc1ccc(-c2nnc(C(F)F)o2)cc1)c1ccccc1 [Compound 11707, (S)—N-(4-(5-(difluoromethyl)-1,3,4-oxadiazol-2-yl)benzyl)-3-(2-methylpyrrolidin-1-yl)-N-phenylpropane-1-sulfonamide]
1778 fold	23 nM	40900 nM	CC(C)N1CCC(S(=O)(=O)N(Cc2ccc(-c3nnc(C(F)F)o3)cc2)c2ccccc2)CC1 [Compound 11638, N-(4-(5-(difluoromethyl)-1,3,4-oxadiazol-2-yl)benzyl)-1-isopropyl-N-phenylpiperidine-4-sulfonamide]
244 fold	224 nM	54800 nM	Cc1cccc(N(Cc2ccc(-c3nnc(C(F)F)o3)cn2)S(=O)(=O)C2CCN([C@H]3CC[C@H](C(F)(F)F)CC3)CC2)c1 [Compound 11690, N-((5-(5-(difluoromethyl)-1,3,4-oxadiazol-2-yl)pyridin-2-yl)methyl)-N-(m-tolyl)-1-((1r,4r)-4-(trifluoromethyl)cyclohexyl)piperidine-4-sulfonamide]
4792 fold	15 nM	71900 nM	CS(=O)(=O)N1CC(N2CCC(S(=O)(=O)N(Cc3ccc(-c4nnc(C(F)F)o4)cn3)c3ccc(F)c(Cl)c3)CC2)C1 [Compound 11503, N-(3-chloro-4-fluorophenyl)-N-((5-(5-(difluoromethyl)-1,3,4-oxadiazol-2-yl)pyridin-2-yl)methyl)-1-(1-(methylsulfonyl)azetidin-3-yl)piperidine-4-sulfonamide]
429 fold	46.6 nM	20000 nM	Cc1cccc(N(Cc2ccc(-c3nnc(C(F)F)o3)cn2)S(=O)(=O)C2CCN([C@H]3CC[C@@H](F)CC3)CC2)c1 [Compound 11689, N-((5-(5-(difluoromethyl)-1,3,4-oxadiazol-2-yl)pyridin-2-yl)methyl)-1-((1s,4s)-4-fluorocyclohexyl)-N-(m-tolyl)piperidine-4-sulfonamide]
900 fold	38 nM	34200 nM	CS(=O)(=O)N(Cc1ccc(-c2nnc(C(F)(F)F)o2)cc1)c1ccccc1 [Compound 11167, N-phenyl-N-(4-(5-(trifluoromethyl)-1,3,4-oxadiazol-2-yl)benzyl)methanesulfonamide]
1065 fold	75.5 nM	80400 nM	O=C(OCCCS(=O)(=O)N(Cc1ccc(-c2nnc(C(F)F)o2)cc1)c1ccccc1)C(F)F [Compound 11709, 3-(N-(4-(5-(difluoromethyl)-1,3,4-oxadiazol-2-yl)benzyl)-N-phenylsulfamoyl)propyl 2,2-difluoroacetate]
